Results reported in US5508311A, “Aliphatic propargylamines as selective MAO-B inhibitors and as neuroprotective agents” (University of Saskatchewan, priority 1993, dated 1996).
Read-outs that look alike come from different tables or passages of the source.

Legend:
[1] = mouse, in vivo
Source text: The acute toxicity of these compounds is quite low. […]. The aliphatic side-chains of these aliphatic propargyl compounds are similar to those that exist in endogenous lipids and fatty acids and such aliphatic chains are readily oxidized in vivo. […]

MAO-A [2] = target: T1, MAO-A (Mus musculus, UniProt Q64133); format: in vivo
T1 construct: MAO activities in the mouse brain after; from tissue
T1 sequence (Q64133 1-526): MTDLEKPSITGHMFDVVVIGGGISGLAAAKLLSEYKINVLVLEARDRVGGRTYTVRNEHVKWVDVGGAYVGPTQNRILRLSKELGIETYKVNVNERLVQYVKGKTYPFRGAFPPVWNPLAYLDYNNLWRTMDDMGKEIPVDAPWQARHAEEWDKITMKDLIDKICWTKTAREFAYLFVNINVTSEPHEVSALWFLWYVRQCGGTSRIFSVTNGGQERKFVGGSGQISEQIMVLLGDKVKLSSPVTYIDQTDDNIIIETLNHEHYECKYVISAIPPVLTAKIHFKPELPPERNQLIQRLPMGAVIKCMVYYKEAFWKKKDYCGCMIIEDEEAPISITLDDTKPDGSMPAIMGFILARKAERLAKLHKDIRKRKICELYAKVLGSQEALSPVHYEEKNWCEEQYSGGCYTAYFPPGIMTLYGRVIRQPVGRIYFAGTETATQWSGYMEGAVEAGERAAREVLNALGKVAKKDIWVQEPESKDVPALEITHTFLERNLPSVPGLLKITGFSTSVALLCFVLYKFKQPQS
Protocol: (§1) Table 3 indicates the MAO activities in the mouse brain following oral administration of the aliphatic propargylamines.
(§2) of each compound. Striata were dissected from the brain two hours after
(§3) the administration of the drugs. MAOA and MAOB activities were determined

MAO-B [3] = target: T2, MAO-B (Mus musculus, UniProt Q8BW75); assay: MAO-B activity in the mouse brain after oral administration (substrate PE); format: in vivo; settings: for Relative activity PE: oral 10 mg/Kg, PE (1.9 × 10^-5 M), mean ± standard error, saline = 100; for Relative activity PE / ED50: 2 hours; for effectiveness in blocking MAO-B activity in vivo after acute oral administration (in words) / ED50: mouse, oral; for ED50: average of 5 animals per dose, estimated from dose response curves, read-out: Inhibition of MAO-B activity, dose response (ID50)
T2 construct: MAO activities in the mouse brain after; from tissue
T2 sequence (Q8BW75 1-520): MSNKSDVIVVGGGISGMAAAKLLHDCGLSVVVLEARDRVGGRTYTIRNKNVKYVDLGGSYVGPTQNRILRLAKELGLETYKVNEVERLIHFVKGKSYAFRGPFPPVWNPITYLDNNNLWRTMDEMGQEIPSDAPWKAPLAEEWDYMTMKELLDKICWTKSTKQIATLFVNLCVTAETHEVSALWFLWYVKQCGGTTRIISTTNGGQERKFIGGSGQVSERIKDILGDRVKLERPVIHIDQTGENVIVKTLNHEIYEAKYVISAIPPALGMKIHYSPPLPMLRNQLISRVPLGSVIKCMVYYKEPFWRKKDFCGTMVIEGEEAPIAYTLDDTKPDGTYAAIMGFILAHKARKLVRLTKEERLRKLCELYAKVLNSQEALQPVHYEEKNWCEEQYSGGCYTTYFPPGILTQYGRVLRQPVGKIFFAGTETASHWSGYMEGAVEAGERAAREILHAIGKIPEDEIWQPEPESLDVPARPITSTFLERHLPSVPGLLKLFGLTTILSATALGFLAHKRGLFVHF
Protocol: as §1, §2, §3
Striata were dissected from the brain two
hours after oral administration of the drugs. MAOB activities were then
determined immediately. The values were estimated from doseresponse

MAO-B [4] = target: T2, MAO-B; assay: in vivo; format: in vivo; settings: for ED50: read-out: PE ID50; for Ratio MAO-A/MAO-B: 120 min
Protocol: (§4) Albino Swiss mice were used in this study. The animals were injected intraperitoneally with different doses of the aliphatic propargylamines in 100 μL saline.
(§5) 0.5, 1, 2, 5, 10, 20, 50, 100 mg/Kg. Striata were dissected from the brai
(§6) two hours after i.p. administration of the drugs. MAOA and MAOB activitie
(§7) were determined immediately. The values were estimated from doseresponse

MAO-A [5] = target: T1, MAO-A; assay: in vivo; settings: ip, read-out: 5-HT ID50
Protocol: as §4, §5, §6, §7

MAO-B [6] = target: T3, MAO-B (Rattus norvegicus, UniProt P19643); assay: biochemical; format: biochemical
T3 sequence (P19643 1-520): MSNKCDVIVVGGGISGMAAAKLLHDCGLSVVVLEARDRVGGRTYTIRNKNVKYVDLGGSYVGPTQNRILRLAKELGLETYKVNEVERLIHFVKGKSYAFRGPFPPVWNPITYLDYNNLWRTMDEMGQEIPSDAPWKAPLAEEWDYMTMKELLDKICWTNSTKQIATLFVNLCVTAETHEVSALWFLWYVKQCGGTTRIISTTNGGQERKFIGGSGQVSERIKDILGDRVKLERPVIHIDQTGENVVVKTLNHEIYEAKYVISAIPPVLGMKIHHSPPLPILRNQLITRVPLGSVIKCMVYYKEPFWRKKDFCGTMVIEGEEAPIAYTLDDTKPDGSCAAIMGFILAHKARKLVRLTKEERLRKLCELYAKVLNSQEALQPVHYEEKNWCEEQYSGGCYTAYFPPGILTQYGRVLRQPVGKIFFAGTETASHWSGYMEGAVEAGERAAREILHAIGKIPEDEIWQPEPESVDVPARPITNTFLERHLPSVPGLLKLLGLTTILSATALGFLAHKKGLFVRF
Protocol: (§8) The aliphatic propargylamine inhibitors (from 1×10^-10 M to 1×10^-4 M) were preincubated with the MAO for 20 min. at ambient room temperature and then the residual enzyme activities were determined by addition of the substrates, followed by further incubation at 37° C. for 30 min. The enzymatic reactions were terminated by the addition of citric acid and the aldehyde products were extracted with toluene: ethyl acetate (1:1, v/v) and the radio-activities assessed in a scintillation counter.

MAO-A [7] = target: T4, MAO-A (Rattus norvegicus, UniProt P21396); assay: biochemical; format: biochemical
T4 sequence (P21396 1-526): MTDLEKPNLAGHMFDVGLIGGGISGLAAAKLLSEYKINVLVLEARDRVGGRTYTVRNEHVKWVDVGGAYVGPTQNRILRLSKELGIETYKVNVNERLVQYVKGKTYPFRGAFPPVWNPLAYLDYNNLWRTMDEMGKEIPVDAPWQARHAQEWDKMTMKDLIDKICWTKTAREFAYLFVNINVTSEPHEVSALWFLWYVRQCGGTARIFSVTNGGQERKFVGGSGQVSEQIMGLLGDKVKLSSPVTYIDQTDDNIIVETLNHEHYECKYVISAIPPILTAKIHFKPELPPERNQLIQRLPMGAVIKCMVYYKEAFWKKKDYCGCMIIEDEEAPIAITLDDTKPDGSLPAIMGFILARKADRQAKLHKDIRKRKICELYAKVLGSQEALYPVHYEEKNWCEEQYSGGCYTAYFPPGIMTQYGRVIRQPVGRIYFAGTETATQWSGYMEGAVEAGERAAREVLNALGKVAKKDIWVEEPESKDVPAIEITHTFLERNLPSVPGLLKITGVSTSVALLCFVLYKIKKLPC
Protocol: as §8

monoamine oxidase = assay: Inhibition of rat liver monoamine oxidase deamination of dopamine (DA, mixed-type MAO A and B substrate) in vitro; format: biochemical; settings: substrate DA (5 × 10^-4 M), average of at least 3 independent experiments
Protocol: as §8

noradrenaline neurons = assay: Protection of noradrenaline neurons against DSP-4 induced neurotoxicity in the mouse brain; format: in vivo; settings: Experiment II, pretreatment 10 mg/Kg i.p., mean ± S.E.
Protocol: The analyses of DSP-4-induced neurotoxic effects were conducted in accordance with […] and Jonsson (Eur. J. Pharmacol. 103 (1984), 269-278), hereby incorporated by reference. Mice were pretreated with M-2-PP (10 mg/Kg) and 2-HxMP (10 mg/Kg) or saline as control via i.p. administration and one hour later challenged with a single i.p. dose of DSP-4 (DSP-4: […] One week after treatment noradrenaline content in the putamen of these mice was analyzed. The results which are shown in Table 5 are mean ± S.E. of five animals in each group.

[8] = oral 10 mg/Kg, 2 hours, 5-HT (5 × 10^-4 M), mean ± standard error, saline = 100
[9] = ID50 i.p. in mice versus IC50 in vitro
[10] = mouse, ip, 2 hours after administration, […], estimated from dose response curves
[11] = 2 hours after administration, 5-HT 5 × 10^-4 M, estimated from dose response curves
[12] = substrate 5-HT (5 × 10^-4 M), rat liver MAO, in vitro, average of at least 3 independent experiments
[13] = rat, liver mitochondrial membranes

Structure (SMILES) | Relative activity PE (MAO-B [3]) | MAO-B ID50 (mg/Kg) / IC50 ([…] × 10^-6 M) (MAO-B [4]; [9]) | ED50 (MAO-B [4]; [10]) | Ratio MAO-A/MAO-B (MAO-B [4]; ratio of ID50 values, i.p.) | ED50 (MAO-A [5]; [11]) | Ratio MAO-A/MAO-B (MAO-B [6]; ratio of IC50 values, in vitro) | IC50 (MAO-B [6]; read-out: PE IC50) | IC50 (MAO-A [7]; [12]) | Ratio MAO-A/MAO-B (MAO-B [4]; mouse, in vivo, ip) | ED50 (MAO-A [5]; 2 h) | IC50 (monoamine oxidase) | Ratio MAO-A/MAO-B (MAO-B [6]; [13]) | further results
C#CCN(C)C(C)CC.Cl.O=C(O)C(=O)O (racemic) [Example 2-BuMP, N-(2-Butyl)-N-methylpropargylamine hydrochloride and oxalate] | – | – | – | – | – | – | – | – | – | – | – | – | fatality after oral administration [1]: no fatality
C#CCN(C)CCCCCCC.Cl [Example 1-HMP, N-(1-Heptyl)-N-methylpropargylamine hydrochloride] | 118 ± 14% | 7.5 (mg/Kg)/(1 × 10^-6 M) | 15 mg/kg | 7 | 100 mg/kg | 20 | 2000 nM | 40 µM | – | – | – | – | Relative activity 5-HT (MAO-A [2]; [8]): 123 ± 16%
C#CCN(C)C(C)CCCCCCCCCC.Cl (stereo not drawn) [Example 2-DdMP, N-(2-dodecyl)-N-methylpropargylamine-HCl] | 64 ± 8% | – | – | – | – | – | – | – | 15 | 60 mg/kg | 300 nM | 50 | Relative activity 5-HT (MAO-A [2]; mouse, in vivo, po, 10 mg/kg): 107 ± 14; effectiveness in blocking MAO-B activity in vivo after acute oral administration (in words) (MAO-B [3]): less potent at inhibiting MAO-B activity in vivo after acute administration; MAO-B ID50 (mg/Kg) / IC50 ([…] × 10^-6 M) (MAO-B [4]; mouse, in vivo, ip): 100; ED50 (MAO-B [4]; mouse, ip, 2 h): 4 mg/kg; IC50 (MAO-B [6]; substrate PE (1.9 × 10^-5 M), rat liver MAO, in vitro, average of at least 3 independent experiments): 40 nM; IC50 (MAO-A [7]; read-out: 5-HT IC50): 2 µM
C#CCN(C)C(C)CCCC.Cl (stereo not drawn) [Example 2-HxMP, N-(2-Hexyl)-N-methylpropargylamine hydrochloride] | – | 2 (mg/Kg)/(1 × 10^-6 M) | 0.2 mg/kg | 200 | 40 mg/kg | 1000 | 100 nM | 100 µM | – | – | – | – | ED50 (MAO-B [3]): 1 mg/kg; Noradrenaline in putamen (noradrenaline neurons; DSP-4 50 mg/Kg, p < 0.01 vs DSP-4 (DSP-4 alone 56)): 84 ± 0.04%; Noradrenaline in putamen (noradrenaline neurons; saline, no DSP-4): 104 ± 0.05%
C#CCN(C)C(C)CCCCCCCC.Cl (stereo not drawn) [Example 2-DMP, N-(2-Decyl)-N-methylpropargylamine hydrochloride] | 104 ± 7% | 25 (mg/Kg)/(1 × 10^-6 M) | 5 mg/kg | 7 | 35 mg/kg | 50 | 200 nM | 4 µM | – | – | 200 nM | – | Relative activity 5-HT (MAO-A [2]; [8]): 97 ± 8%; effectiveness in blocking MAO-B activity in vivo after acute oral administration (in words) (MAO-B [3]): less potent at inhibiting MAO-B activity in vivo after acute administration; ED50 (MAO-B [3]): 50 mg/kg
C#CCN(C)C(CC)CC.O=C(O)C(=O)O [Example M-3-PP, N-Methyl-N-(3-pentyl)propargylamine oxalate] | – | 10 (mg/Kg)/(1 × 10^-6 M) | 1 mg/kg | – | – | – | 200 nM | 2 µM | 12 | 12 mg/kg | – | 10 | –
C#CCN(C)C(C)CCCCC.Cl (stereo not drawn) [Example 2-HMP, N-(2-Heptyl)-N-methylpropargylamine hydrochloride] | 39 ± 4% | – | – | – | – | – | 200 nM | 20 µM | 50 | 25 mg/kg | 300 nM | 100 | Relative activity 5-HT (MAO-A [2]; mouse, in vivo, po, 10 mg/kg): 99 ± 5; MAO-B ID50 (mg/Kg) / IC50 ([…] × 10^-6 M) (MAO-B [4]; mouse, in vivo, ip): 2.5; ED50 (MAO-B [4]; mouse, ip, 2 h): 0.5 mg/kg
